According to patent US11180475B2, “Crystal form I of a 5-aminopyrazole carboxamide compound as BTK inhibitor” (SinoMab BioScience Limited, priority 2017, dated 2021):

Assays:
[1] = molecular target: Recombinant Btk (Homo sapiens, UniProt Q06187); assay: Kinase activity (BTK) inhibition assay, TR-FRET; type: biochemical; settings: read-out: IC50, inhibitory effect on BTK kinase activity
Method: The inhibitory effects of compound (R)-5-amino-3-(4-((5-chloropyridin-2-yl)oxy)phenyl)-1-(4-cyano-4-azaspiro[2.5]oct-6-yl)-1H-pyrazole-4-carboxamide (I) on BTK kinase activity were tested in an assay based on a time resolved fluorescence resonance energy transfer (TR-FRET) method. Recombinant Btk was pre-incubated with the compound disclosed herein in an assay buffer containing 50 mM Tris pH 7.4, 10 mM MgCl2, 2 mM MnCl2, 0.1 mM EDTA, 1 mM DTT, 20 nM SEB, 0.1% BSA, 0.005% tween-20 at room temperature for 1 hour. The reaction was initiated by the addition of ATP (at the ATP Km concentration) and the peptide substrate (Biotin-[…]-NH2). After incubation at room temperature for 1 hour, an equal volume of stop solution containing 50 mM HEPES pH 7.0, 800 mM KF, 20 mM EDTA, 0.1% BSA, p-Tyr66 antibody linked with Eu cryptate and streptavidin-labeled XL665 was added to stop the reaction. The plate was incubated at room temperature for an additional hour and then the TR-FRET signal was read on a BMG PHERAstar FS instrument (ex337 nm, em 620 nm/665 nm). Based on the ratio of the signal of fluorescence at 615 nm to 665 nm, the residual enzyme activity was calculated with an increased compound concentration. IC50 of each compound was obtained by fitting the data to the four-parameter equation of Graphpad Prism software.

[2] = molecular target: hERG (Homo sapiens, UniProt Q12809); assay: hERG binding assay (Dofetillide method); settings: read-out: IC50 for hERG inhibition
Excerpt: The IC50 value of a compound for hERG inhibition can be determined according to the method described in the patent application US20050214870 A1.

[3] = system: normal human B cells; assay: B cell inhibition assay (CD69, flow cytometry); type: cell-based; settings: 1 hour exposure, washed off, IgM F(ab')2 stimulation 18 hours, read-out: IC50, inhibitory activity on B cells
Method: Temporary exposure to a BTK inhibitor in vitro is sufficient to inhibit B cell activation in normal human B cells.
B cells were obtained by purification from healthy donor blood through negative selection using the RosetteSep human B Cell Enrichment Mix. Cells were plated in a growth medium (10% RPMI+10% fetal bovine serum) and the inhibitor was added at specified concentrations. After incubation at 37° C. for 1 hour, the cells were washed three times, and each wash was used for 8-fold dilution in the growth medium. The cells were then stimulated with 10 μg/mL IgM F(ab′)2 at 37° C. for 18 hours. Cells were subsequently stained with an anti-CD69-PE antibody and analyzed by flow cytometry using standard conditions.

[4] = system: diffuse large B-cell lymphoma cell line TMD-8; assay: Pharmacodynamic assay, TMD-8 xenograft; type: in vivo; settings: NOD.SCID mice, p.o. daily for 21 days
Method: Severe immunodeficiency NOD.SCID mice were purchased from Beijing Vital River Laboratory Animal Technology Co., Ltd., and were housed in SPF grade animal room. After TMD-8 cells were cultured to the sufficient amount, the cells were collected by centrifugation and washed twice with PBS. Finally, the cells were resuspended in serum-free RPMI 1640 medium and Matrigel (1:1 v/v). 0.2 ml of cell suspension was injected subcutaneously on the right flank of each mouse using 1 ml syringe and 25G syringe needle. The tumor size was measured with a caliper after about one week post injection. The tumor volume was calculated according to the following formula: tumor volume=(length×width^2)/2. When the tumor volume reached about 100-200 mm^3, the mice were grouped and p.o. administered daily for 21 days.

[5] = Pharmacokinetics in rats; type: in vivo; settings: rat, plasma, oral; male SD rats, p.o. 10 mg/kg vs i.v. 2 mg/kg
Method: 1. Male SD rats (HFK) were acclimatized in the laboratory for 7 days after arrival.
2. […], 3 animals in each group. One group was dosed by oral gavage (p.o.), and the other group was dosed by tail vein injection (i.v.). Rats in the p.o. group were fasted overnight before drug administration.
3. After drug administration, blood samples were collected from the rats via the posterior orbital venous plexus approach at the following time points: I.V.: (before drug administration), 0.08 hours, 0.25 hours, 0.5 hours, 1 hour, 2 hours, 4 hours, 8 hours, 24 hours; P.O.: 0.08 hour, 0.25 hour, 0.5 hour, 1 hour, 2 hours, 4 hours, 8 hours, 24 hours. About 300 μl of blood were collected at each collection time point.
4. The collected blood samples were centrifuged at 12000 rpm for 5 minutes at 4° C., and then the upper plasma samples were collected and stored in a refrigerator at −20° C.
6. […]
The pharmacokinetic parameters were calculated using the pharmacokinetic professional software WinNonlin [Model: Phoenix™ WinNonlin® 6.1; Manufacturer: Pharsight Corporation]. […]

[6] = Stability study in liver microsomes; type: in vitro ADME, human, dog, rat, and mouse; settings: 60 minutes incubation, 37° C., liver microsomes of various species
Method: 1. Compound (R)-5-amino-3-(4-((5-chloropyridin-2-yl)oxy)phenyl)-1-(4-cyano-4-azaspiro[2.5]oct-6-yl)-1H-pyrazole-4-carboxamide (I) was dissolved in acetonitrile to prepare a stock solution having a concentration of 0.5 mM.
2. 2 μL of stock solution was added to a 1.5 ml centrifuge tube, and then 148 μL of phosphate buffer (100 mM, pH 7.4) and 10 μL of liver microsome suspension (the protein concentration was 20 mg/ml) [BD Gentest] were added. The liver microsomes were derived from the species of human, dog, rat, and mouse; The control group was added with 158 μL of phosphate buffer (100 mM, pH 7.4).
3. The mixture obtained in step 2 was pre-incubated in a 37° C. water bath for 3 minutes; then 40 μL of NADPH generating system (containing NADP+: 6.5 mM, glucose 6-phosphate: 16.5 mM, MgCl2: 16.5 mM, glucose 6-phosphate dehydrogenase: 2 U/ml) was added to initiate the reaction. The reaction system was incubated in a 37° C. water bath for 1 hour.
4. After the reaction was carried out for 1 hour, the centrifuge tube was removed from the water bath, and the reaction was terminated by adding 400 μL of acetonitrile, followed by vortexing for 3 minutes. […]
6. After 60 minutes of incubation, the percentage of remaining drug in the incubation system was calculated as follows: Remaining Drug (%)=Cr/C0×100%

[7] = system: five CYP450 enzymes in human liver microsomes; assay: Inhibition of CYP enzymes, cocktail probe substrates; type: in vitro ADME; settings: CYP1A2, CYP2D6, CYP2C9, CYP2C19, CYP3A4
Method: METHOD: This experiment simultaneously determined the inhibitory effects of a compound on five CYP450 enzymes in human liver microsomes using the cocktail probe substrates approach. The human microsomes were from BD Gentest.
The reaction was carried out in 100 mM of phosphate buffer, with a total volume of 200 μL. The concentration of microsomes in the reaction system was 0.25 mg/mL, and the concentration of the test compound was 20 μM, 6.67 μM, 2.22 μM, 0.74 μM, and 0.25 μM. The specific probe substrates and concentration were phenacetin (CYP1A2) 40 μM, dextromethorphan (CYP2D6) 5 μM, diclofenac (CYP2C9) 10 μM, S-mephenytoin (CYP2C19) 40 μM, testosterone (CYP3A4) 80 μM, respectively. The mixture was pre-incubated in a 37° C. thermostatic shaker for 5 minutes, and the NADPH-generating system (containing 1.3 mM NADP+, 3.3 mM glucose 6-phosphate, […] glucose 6-phosphate dehydrogenase, 3.3 mM MgCl2) was added to start the reaction. After incubation for 45 minutes, the reaction was stopped by adding an equal volume of acetonitrile. The tube was vortexed and centrifuged at 13,000 rpm. The resulting supernatant was subjected to LC-MS-MS to determine the amount of produced metabolites. […] The final result of this experiment is the calculated half inhibitory concentration IC50 value.

[8] = system: B cells in human whole blood; assay: Inhibition assay on human whole blood B cells (CD69); type: cell-based; settings: B-cell, anti-human IgM F(ab')2 stimulation 20 hours, read-out: IC50, inhibitory activity on B cells in human whole blood
Method: Human whole blood (hWB) was obtained from healthy volunteers and blood was collected by venipuncture into a heparin sodium-anticoagulant Vacutainer tube. Test compounds were diluted 10 times in PBS to the required initial drug concentration), followed by three-fold serial dilutions with 10% DMSO in PBS to obtain a 9-point dose response curve. 5.5 μL of each diluted compound was added to the aiil 96-well V-bottom plate in duplicate; 5.5 μL of 10% DMSO in PBS was added to control and non-stimulated wells. Human whole blood (100 μL) was added to each well, and after mixing, the plates were incubated for 30 minutes at 37° C. and in 5% CO2, 100% humidity. An anti-human IgM F(ab′)2 (Southern Biotech) (10 μL of 500 μg/mL solution, 50 μg/mL final concentration) was added to each well (except for non-stimulated wells) with vortexing, and the plate was further incubated for another 20 hours. After 20-hour incubation, samples were incubated with 20 μL of fluorescent probe-labeled APC mouse anti-human CD69 (BD Pharmingen) for 30 minutes at 37° C., 5% CO2, 100% humidity. Induced controls, unstained, and single-stained samples were included for compensation and initial voltage settings. […] Results were initially analyzed using FACS analysis software (Flow Jo). The IC50 values were then calculated using XLfit v3, Equation 201.

[9] = system: T cells; assay: T cell inhibition assay (CD69, flow cytometry); type: cell-based; settings: Homo sapiens, 1 hour exposure, washed, anti-CD3/CD28 beads 18 hours, read-out: IC50, inhibitory activity on T cells
Method: T cells were obtained by purification of healthy donor blood through negative selections using the RosetteSep Human T Cell Enrichment Mix. Cells were plated in a growth medium (10% RPMI+10% fetal bovine serum) and the inhibitor was added at specified concentrations. After incubating for 1 hour at 37° C., the cells were washed three times, and each wash was used for 10-fold dilution in the growth medium. The cells were then stimulated with anti-CD3/CD28 coated beads (bead/cell ratio 1:1) for 18 hours at 37° C. Cells were subsequently stained with an anti-CD69-PE antibody and analyzed by flow cytometry using standard conditions. According to the above experimental methods, compound (R)-5-amino-3-(4-((5-chloropyridin-2-yl)oxy)phenyl)-1-(4-cyano-4-azaspiro[2.5]oct-6-yl)-1H-pyrazole-4-carboxamide (I) has very low or no inhibitory activity on T cells, with an IC50 values higher than 4000 nM.

Recombinant Btk, sequence (Q06187 whole entry): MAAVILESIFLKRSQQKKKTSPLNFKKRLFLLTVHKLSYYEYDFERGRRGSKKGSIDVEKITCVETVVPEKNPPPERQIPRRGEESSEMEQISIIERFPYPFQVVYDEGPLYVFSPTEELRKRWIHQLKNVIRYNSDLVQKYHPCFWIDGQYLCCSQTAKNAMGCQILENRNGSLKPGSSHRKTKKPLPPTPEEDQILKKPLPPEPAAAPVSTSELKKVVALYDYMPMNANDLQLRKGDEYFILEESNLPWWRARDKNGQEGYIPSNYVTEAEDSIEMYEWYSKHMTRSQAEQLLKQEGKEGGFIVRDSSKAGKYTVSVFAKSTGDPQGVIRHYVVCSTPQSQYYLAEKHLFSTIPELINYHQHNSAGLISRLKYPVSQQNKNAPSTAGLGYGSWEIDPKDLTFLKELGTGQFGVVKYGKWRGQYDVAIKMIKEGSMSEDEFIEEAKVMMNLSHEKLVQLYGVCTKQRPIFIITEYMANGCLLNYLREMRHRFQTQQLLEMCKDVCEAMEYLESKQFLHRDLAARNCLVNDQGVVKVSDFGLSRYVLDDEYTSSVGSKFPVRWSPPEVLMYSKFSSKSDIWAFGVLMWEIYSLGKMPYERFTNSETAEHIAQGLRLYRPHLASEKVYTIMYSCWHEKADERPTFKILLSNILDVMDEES
hERG, sequence (Q12809 whole entry): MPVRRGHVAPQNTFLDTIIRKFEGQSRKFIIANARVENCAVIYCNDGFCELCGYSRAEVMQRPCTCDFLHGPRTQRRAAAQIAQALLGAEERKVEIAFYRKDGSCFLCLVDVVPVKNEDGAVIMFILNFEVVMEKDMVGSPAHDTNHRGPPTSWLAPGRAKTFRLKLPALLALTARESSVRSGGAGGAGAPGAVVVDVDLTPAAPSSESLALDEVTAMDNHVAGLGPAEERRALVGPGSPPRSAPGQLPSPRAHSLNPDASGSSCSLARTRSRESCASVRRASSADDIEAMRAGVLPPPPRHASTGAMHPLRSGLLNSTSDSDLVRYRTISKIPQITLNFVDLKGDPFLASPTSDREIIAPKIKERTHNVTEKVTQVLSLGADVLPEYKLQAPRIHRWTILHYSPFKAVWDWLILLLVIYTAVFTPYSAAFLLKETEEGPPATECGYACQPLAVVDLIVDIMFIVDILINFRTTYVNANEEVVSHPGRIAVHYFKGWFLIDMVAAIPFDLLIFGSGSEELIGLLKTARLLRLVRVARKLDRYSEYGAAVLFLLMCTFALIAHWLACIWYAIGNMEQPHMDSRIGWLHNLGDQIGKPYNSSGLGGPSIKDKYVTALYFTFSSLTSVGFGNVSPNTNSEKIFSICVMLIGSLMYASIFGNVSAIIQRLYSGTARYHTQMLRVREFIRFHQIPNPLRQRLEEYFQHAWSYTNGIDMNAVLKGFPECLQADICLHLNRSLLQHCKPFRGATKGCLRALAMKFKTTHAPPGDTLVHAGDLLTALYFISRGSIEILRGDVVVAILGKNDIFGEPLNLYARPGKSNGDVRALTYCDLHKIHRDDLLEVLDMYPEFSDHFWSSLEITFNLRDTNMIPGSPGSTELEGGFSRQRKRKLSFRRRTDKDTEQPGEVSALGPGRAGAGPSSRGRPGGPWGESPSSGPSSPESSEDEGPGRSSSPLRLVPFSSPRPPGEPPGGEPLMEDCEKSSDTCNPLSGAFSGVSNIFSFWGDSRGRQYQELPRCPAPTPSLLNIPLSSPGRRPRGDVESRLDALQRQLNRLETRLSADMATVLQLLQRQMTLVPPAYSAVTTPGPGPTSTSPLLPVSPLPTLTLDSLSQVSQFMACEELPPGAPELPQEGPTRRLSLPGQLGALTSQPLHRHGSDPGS

**Q.** For N#CN1C[C@H](n2nc(-c3ccc(Oc4ccc(Cl)cn4)cc3)c(C(N)=O)c2N)CCC12CC2 [Compound I, (R)-5-amino-3-(4-((5-chloropyridin-2-yl)oxy)phenyl)-1-(4-cyano-4-azaspiro[2.5]oct-6-yl)-1H-pyrazole-4-carboxamide], which IC50 [1] is on record?
**A.** < 100 nM

**Q.** What about the IC50 [2] of the same compound?
**A.** > 1000 nM

**Q.** What about the IC50 [3] of the same compound?
**A.** < 10 nM

**Q.** And the “inhibition of TMD-8 tumor growth in vivo” value [4]?
**A.** significantly inhibited the growth

**Q.** And the bioavailability [5]?
**A.** > 40%

**Q.** And the “Remaining Drug (%), residual percentage in liver microsomes” value [6]?
**A.** > 30%

**Q.** What about the “inhibitory effect on various CYP enzymes” value [7] of the same compound?
**A.** very low or no inhibitory effect

**Q.** And the IC50 [8]?
**A.** < 200 nM

**Q.** What about the IC50 [9] of the same compound?
**A.** > 4000 nM
